Source: US12319692B2, “Anti-influenza virus pyrimidine derivatives” (GUANGDONG RAYNOVENT BIOTECH CO., LTD., priority 2016, dated 2025)

How the values were obtained:
[1] = tested on: Influenza virus A/Weiss/43 (H1N1); experiment: Influenza virus cytopathic effect (CPE) experiment in MDCK cells; assay type: cell-based; conditions: 120 h, 5 days, CCK8 cell viability
[2] = tested on: influenza A virus H1N1 (H1N1 A/WSN/33); experiment: In vivo pharmacodynamics in mouse infection model of influenza A virus H1N1; conditions: female BALB/c mice, H1N1 A/WSN/33, 10 mg/kg oral twice a day, day 1 to day 7, first dose 36 hours after infection

For CCn1cc(-c2nc(-c3c[nH]c4ncc(F)cc34)nc(N[C@H]3C4CCC(CC4)[C@@H]3C(=O)O)c2F)cn1 [WX-294], the EC50 [1] was 0.1 nM.
O=C(O)[C@H]1C2CCC(CC2)[C@@H]1Nc1nc(-c2n[nH]c3ncc(F)cc23)nc(-c2cccs2)c1F [WX-271] was tested, and the EC50 [1] was 0.057 nM.
O=C(O)[C@H]1C2CCC(CC2)[C@@H]1Nc1nc(-c2c[nH]c3ncc(F)cc23)nc(SCC(F)(F)F)c1F [WX-234] gave an EC50 [1] of 0.1 nM.
O=C(O)c1ccc(-c2nc(-c3c[nH]c4ncc(F)cc34)nc(N[C@H]3C4CCC(CC4)[C@@H]3C(=O)O)c2F)s1 [WX-278] gave an EC50 [1] of 2.7 nM.
CC(C)(C)C#Cc1nc(-c2c[nH]c3ncc(F)cc23)nc(N[C@H]2C3CCC(CC3)[C@@H]2C(=O)O)c1F [WX-275] was tested, and the EC50 [1] was 0.009 nM.
Cn1cc(-c2nc(-c3c[nH]c4ncc(F)cc34)nc(N[C@H]3C4CCC(CC4)[C@@H]3C(=O)O)c2F)cn1 [WX-231] was tested, and the “Survival Rate (percentages)” value [2] was 100%, the “Weight Losing Rate (day 9)” value [2] was 12.9% and the EC50 [1] was 0.2 nM.
CC(C)(C)Sc1nc(-c2n[nH]c3ncc(F)cc23)nc(N[C@H]2C3CCC(CC3)[C@@H]2C(=O)O)c1F [WX-274] was tested, and the EC50 [1] was 0.1 nM.
Work on CSc1nc(-c2c[nH]c3ncc(F)cc23)nc(N[C@H]2C3CCC(CC3)[C@@H]2C(=O)O)c1F [WX-139] yielded an EC50 [1] of 0.02 nM.
Compound CC(C)(C(N)=O)n1cc(-c2nc(-c3c[nH]c4ncc(F)cc34)nc(N[C@H]3C4CCC(CC4)[C@@H]3C(=O)O)c2F)cn1 [WX-286] has an EC50 [1] of 3.7 nM.
Work on CC(C)(C)Sc1nc(-c2c[nH]c3ncc(F)cc23)nc(N[C@H]2C3CCC(CC3)[C@@H]2C(=O)O)c1F [WX-241] yielded an EC50 [1] of 0.01 nM.
For O=C(O)[C@H]1C2CCC(CC2)[C@@H]1Nc1nc(-c2n[nH]c3ncc(F)cc23)nc(-c2ccsc2)c1F [WX-269], the EC50 [1] was 0.019 nM.
With Cc1ccc(-c2nc(-c3c[nH]c4ncc(F)cc34)nc(N[C@H]3C4CCC(CC4)[C@@H]3C(=O)O)c2F)s1 [WX-247] the EC50 [1] was 56.6 nM.
O=C(O)[C@H]1C2CCC(CC2)[C@@H]1Nc1nc(-c2c[nH]c3ncc(F)cc23)nc(-c2ccncc2)c1F [WX-230] showed an EC50 [1] of 0.1 nM.
COCCn1cc(-c2nc(-c3c[nH]c4ncc(F)cc34)nc(N[C@H]3C4CCC(CC4)[C@@H]3C(=O)O)c2F)cn1 [WX-283] gave an EC50 [1] of 0.4 nM.
Cn1cc(-c2nc(-c3n[nH]c4ncc(F)cc34)nc(N[C@H]3C4CCC(CC4)[C@@H]3C(=O)O)c2F)cn1 [WX-264] was tested, and the EC50 [1] was 0.1 nM.
In the case of N#C[C@H]1C[C@@H]1c1nc(-c2n[nH]c3ncc(F)cc23)nc(N[C@H]2C3CCC(CC3)[C@@H]2C(=O)O)c1F [WX-359], the EC50 [1] is reported as 0.09 nM.
With CCSc1nc(-c2c[nH]c3ncc(F)cc23)nc(N[C@H]2C3CCC(CC3)[C@@H]2C(=O)O)c1F [WX-156] the EC50 [1] was 0.01 nM.
Compound O=C(O)[C@H]1C2CCC(CC2)[C@@H]1Nc1nc(-c2c[nH]c3ncc(F)cc23)nc(-c2ccsc2)c1F [WX-240] has an EC50 [1] of 0.03 nM.
O=C(O)[C@H]1C2CCC(CC2)[C@@H]1Nc1nc(-c2n[nH]c3ncc(F)cc23)nc(C2CC2F)c1F (stereo partly drawn) [WX-353] gave an EC50 [1] of 0.039 nM.
Compound O=C(O)[C@H]1C2CCC(CC2)[C@@H]1Nc1nc(-c2c[nH]c3ncc(F)cc23)nc(-c2cnn(CCO)c2)c1F [WX-263] has an EC50 [1] of 1.5 nM.
NC1(c2nc(-c3n[nH]c4ncc(F)cc34)nc(N[C@H]3C4CCC(CC4)[C@@H]3C(=O)O)c2F)CC1 [WX-354] was tested, and the EC50 [1] was 4.4 nM.
For CN(C)Cc1ccc(-c2nc(-c3c[nH]c4ncc(F)cc34)nc(N[C@H]3C4CCC(CC4)[C@@H]3C(=O)O)c2F)s1 [WX-279], the “Survival Rate (percentages)” value [2] was 100%, the “Weight Losing Rate (day 9)” value [2] was 28.7% and the EC50 [1] was 0.025 nM.
Compound CSc1nc(-c2nc(-c3c[nH]c4ncc(F)cc34)nc(N[C@H]3C4CCC(CC4)[C@@H]3C(=O)O)c2F)c[nH]1 [WX-276] has an EC50 [1] of 3.6 nM.
With O=C(O)[C@H]1C2CCC(CC2)[C@@H]1Nc1nc(-c2c[nH]c3ncc(F)cc23)nc(-c2cnn(C3CC3)c2)c1F [WX-281] the EC50 [1] was 0.026 nM.
For CC1(c2nc(-c3n[nH]c4ncc(F)cc34)nc(N[C@H]3C4CCC(CC4)[C@@H]3C(=O)O)c2F)CC1 [WX-351], the “Weight Losing Rate (day 9)” value [2] was 35.3% and the EC50 [1] was 0.2 nM.
With CSc1nc(-c2c[nH]c3c(F)cc(F)cc23)nc(N[C@H]2C3CCC(CC3)[C@@H]2C(=O)O)c1F [WX-160] the EC50 [1] was 0.5 nM.
In the case of O=C(O)[C@H]1C2CCC(CC2)[C@@H]1Nc1nc(-c2n[nH]c3ncc(F)cc23)nc(-c2cn[nH]c2)c1F [WX-265], the EC50 [1] is reported as 2.8 nM.
O=C(O)[C@H]1C2CCC(CC2)[C@@H]1Nc1nc(-c2n[nH]c3ncc(F)cc23)nc(C2(F)CC2)c1F [WX-355] showed an EC50 [1] of 0.04 nM.
O=C(O)[C@H]1C2CCC(CC2)[C@@H]1Nc1nc(-c2c[nH]c3ncc(F)cc23)nc(-c2ccc(CN3CCOCC3)s2)c1F [WX-290] was tested, and the “Survival Rate (percentages)” value [2] was 40%, the “Weight Losing Rate (day 9)” value [2] was 27.6% and the EC50 [1] was 0.041 nM.
O=C(O)[C@H]1C2CCC(CC2)[C@@H]1Nc1nc(-c2c[nH]c3ncc(F)cc23)nc(-c2cccs2)c1F [WX-236] showed an EC50 [1] of 0.01 nM.
CN1CC(n2cc(-c3nc(-c4c[nH]c5ncc(F)cc45)nc(N[C@H]4C5CCC(CC5)[C@@H]4C(=O)O)c3F)cn2)C1 [WX-293] gave an EC50 [1] of 8 nM.
In the case of O=C(O)[C@H]1C2CCC(CC2)[C@@H]1Nc1nc(-c2n[nH]c3ncc(F)cc23)nc(C2CC2)c1F [WX-216], the “Survival Rate (percentages)” value [2] is reported as 100%, the “Weight Losing Rate (day 9)” value [2] is reported as 4.8% and the EC50 [1] is reported as 0.013 nM.
With CC(C)Sc1nc(-c2c[nH]c3ncc(F)cc23)nc(N[C@H]2C3CCC(CC3)[C@@H]2C(=O)O)c1F [WX-261] the EC50 [1] was 0.018 nM.
N#CCn1cc(-c2nc(-c3c[nH]c4ncc(F)cc34)nc(N[C@H]3C4CCC(CC4)[C@@H]3C(=O)O)c2F)cn1 [WX-296] gave an EC50 [1] of 1 nM.
In the case of CC(C)(C(=O)O)n1cc(-c2nc(-c3c[nH]c4ncc(F)cc34)nc(N[C@H]3C4CCC(CC4)[C@@H]3C(=O)O)c2F)cn1 [WX-284], the EC50 [1] is reported as 10 nM.
Cc1noc(C)c1-c1nc(-c2c[nH]c3ncc(F)cc23)nc(N[C@H]2C3CCC(CC3)[C@@H]2C(=O)O)c1F [WX-245] was tested, and the EC50 [1] was 4 nM.
Compound Cn1cc(-c2nc(-c3n[nH]c4ncc(C(F)(F)F)cc34)nc(N[C@H]3C4CCC(CC4)[C@@H]3C(=O)O)c2F)cn1 [WX-280] has an EC50 [1] of 0.055 nM.
CC(C)C#Cc1nc(-c2c[nH]c3ncc(F)cc23)nc(N[C@H]2C3CCC(CC3)[C@@H]2C(=O)O)c1F [WX-249] gave an EC50 [1] of 0.009 nM.
CN(C)Cc1cc(-c2nc(-c3c[nH]c4ncc(F)cc34)nc(N[C@H]3C4CCC(CC4)[C@@H]3C(=O)O)c2F)cs1 [WX-295] was tested, and the EC50 [1] was 0.013 nM.
In the case of O=C(O)[C@H]1C2CCC(CC2)[C@@H]1Nc1nc(-c2c[nH]c3ncc(F)cc23)nc(-c2cc[nH]n2)c1F [WX-260], the EC50 [1] is reported as 1.1 nM.
O=C(O)[C@H]1C2CCC(CC2)[C@@H]1Nc1nc(-c2c[nH]c3ncc(F)cc23)nc(-n2ccnc2)c1F [WX-186] was tested, and the EC50 [1] was 0.1 nM.
In the case of O=C(O)[C@H]1C2CCC(CC2)[C@@H]1Nc1nc(-c2c[nH]c3ncc(F)cc23)nc(-c2ccn(C(F)F)n2)c1F [WX-352], the EC50 [1] is reported as 0.046 nM.
CN1CCN(C(=O)c2ccc(-c3nc(-c4c[nH]c5ncc(F)cc45)nc(N[C@H]4C5CCC(CC5)[C@@H]4C(=O)O)c3F)s2)CC1 [WX-288] gave an EC50 [1] of 2.3 nM.
With N#C[C@@H]1C[C@H]1c1nc(-c2n[nH]c3ncc(F)cc23)nc(N[C@H]2C3CCC(CC3)[C@@H]2C(=O)O)c1F [WX-360] the EC50 [1] was 0.2 nM.
N#CC1(c2nc(-c3n[nH]c4ncc(F)cc34)nc(N[C@H]3C4CCC(CC4)[C@@H]3C(=O)O)c2F)CC1 [WX-358] was tested, and the EC50 [1] was 0.6 nM.
With O=C(O)[C@H]1C2CCC(CC2)[C@@H]1Nc1nc(-c2c[nH]c3ncc(F)cc23)nc(-c2ccc(Cl)s2)c1F [WX-298] the EC50 [1] was 6.7 nM.
CN1CCN(Cc2ccc(-c3nc(-c4c[nH]c5ncc(F)cc45)nc(N[C@H]4C5CCC(CC5)[C@@H]4C(=O)O)c3F)s2)CC1 [WX-289] gave an EC50 [1] of 0.1 nM.
In the case of O=C(O)[C@H]1C2CCC(CC2)[C@@H]1Nc1nc(-c2n[nH]c3ncc(F)cc23)nc(C2CC2(F)F)c1F (stereo partly drawn) [WX-297], the “Survival Rate (percentages)” value [2] is reported as 100%, the “Weight Losing Rate (day 9)” value [2] is reported as 27.3% and the EC50 [1] is reported as 0.024 nM.
In the case of Cc1csc(-c2nc(-c3c[nH]c4ncc(F)cc34)nc(N[C@H]3C4CCC(CC4)[C@@H]3C(=O)O)c2F)c1 [WX-285], the EC50 [1] is reported as 32 nM.
